# Key:
# barnyardgrass [1] = experiment: Test B pre-/postemergence herbicide test; assay type: in vivo, Echinochloa crus-galli; conditions: for Barnyardgrass plant response rating: postemergence, visual rating, scale 0 (no effect) to 100 (complete control)
# Method in brief: (§1)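 Greenhouse pot assay with simultaneous preemergence (treated seed) and postemergence (2–18 cm seedlings) applications of surfactant-containing, non-phytotoxic solvent formulations. Response scored visually 13–15 days later on a 0–100 scale, 100 meaning complete control.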
# Surinam grass = experiment: Test B pre-/postemergence herbicide test; assay type: in vivo, Urochloa decumbens; conditions: for Surinam Grass plant response rating: postemergence, visual rating, scale 0 (no effect) to 100 (complete control)
# Method in brief: as §1
# cocklebur = experiment: Test B pre-/postemergence herbicide test; assay type: in vivo, Xanthium strumarium; conditions: for Cocklebur plant response rating: postemergence, visual rating, scale 0 (no effect) to 100 (complete control)
# Method in brief: as §1
# corn = experiment: Test B pre-/postemergence herbicide test; assay type: in vivo, Zea mays; conditions: for Corn plant response rating: postemergence, visual rating, scale 0 (no effect) to 100 (complete control)
# Method in brief: as §1
# large crabgrass = experiment: Test B pre-/postemergence herbicide test; assay type: in vivo, Digitaria sanguinalis; conditions: for Crabgrass, Large plant response rating: postemergence, visual rating, scale 0 (no effect) to 100 (complete control)
# Method in brief: as §1
# giant foxtail = experiment: Test B pre-/postemergence herbicide test; assay type: in vivo, Setaria faberi; conditions: for Foxtail, Giant plant response rating: postemergence, visual rating, scale 0 (no effect) to 100 (complete control)
# Method in brief: as §1
# lambsquarters = experiment: Test B pre-/postemergence herbicide test; assay type: in vivo, Chenopodium album; conditions: for Lambsquarters plant response rating: postemergence, visual rating, scale 0 (no effect) to 100 (complete control)
# Method in brief: as §1
# morningglory = experiment: Test B pre-/postemergence herbicide test; assay type: in vivo, Ipomoea coccinea; conditions: for Morningglory plant response rating: postemergence, visual rating, scale 0 (no effect) to 100 (complete control)
# Method in brief: as §1
# pigweed = experiment: Test B pre-/postemergence herbicide test; assay type: in vivo, Amaranthus retroflexus; conditions: for Pigweed plant response rating: postemergence, visual rating, scale 0 (no effect) to 100 (complete control)
# Method in brief: as §1
# rice [2] = experiment: Test B pre-/postemergence herbicide test; assay type: in vivo, Oryza sativa; conditions: preemergence
# Excerpt: Seeds selected from barnyardgrass (Echinochloa crus-galli (L.) Beauv.), Surinam grass (Urochloa decumbens (Staph) R. D. Webster, previously named Brachiaria decumbens Stapf), cocklebur (Xanthium strumarium L.), corn (Zea mays L.), large crabgrass (Digitaria sanguinalis (L.) Scop.), giant foxtail (Setaria faberi Herim.), lambsquarters (Chenopodium album L.), morningglory (Ipomoea coccinea L.), pigweed (Amaranthus retroflexus L.), rice (Oryza sativa L.) and velvetleaf (Abutilon theophrasti Medik.) were planted and treated preemergence with test chemicals formulated in a non-phytotoxic solvent mixture which included a surfactant.
# At the same time, plants selected from these crop and weed species and also blackgrass (Alopecurus myosuroides Huds.), wheat (Triticum aestivum L.) and wild oat (Avena fatua L.) were treated with postemergence applications of test chemicals formulated in the same manner. Plants ranged in height from 2 to 18 cm (1- to 4-leaf stage) for postemergence treatments. Plant species in the flooded paddy test consisted of rice (Oryza sativa L.), small flower umbrella sedge (Cyperus difformis L.), ducksalad (Heteranthera limosa (Sw.) Willd.) and barnyardgrass (Echinochloa crus-galli (L.) Beauv.) grown to the 2-leaf stage for testing. Treated plants and controls were maintained in a greenhouse for 13 to 15 days, after which time all species were compared to controls and visually evaluated. Plant response ratings, summarized in Table B, are based on a scale of 0 to 100 where 0 is no effect and 100 is complete control. A dash (-) response means no test result.
# velvetleaf = experiment: Test B pre-/postemergence herbicide test; assay type: in vivo, Abutilon theophrasti; conditions: for Velvetleaf plant response rating: postemergence, visual rating, scale 0 (no effect) to 100 (complete control)
# Method in brief: as §1
# blackgrass = experiment: Test B postemergence herbicide test; assay type: in vivo, Alopecurus myosuroides; conditions: postemergence, visual rating, scale 0 (no effect) to 100 (complete control)
# Method in brief: (§2)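 Greenhouse test; postemergence application to plants at 1–4 leaves (2–18 cm); paddy species at 2 leaves; evaluated visually vs controls at 13–15 days; scale 0–100 (100 = complete control).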
# wheat = experiment: Test B postemergence herbicide test; assay type: in vivo, Triticum aestivum; design: key to Wheat plant response rating: 0 = no effect, 100 = complete control; conditions: postemergence, visual rating, scale 0 (no effect) to 100 (complete control)
# Method in brief: (§3)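 Postemergence plants were sprayed with formulated test chemicals at 2 to 18 cm height (1- to 4-leaf stage); paddy species were grown to the 2-leaf stage. After 13 to 15 days in a greenhouse, injury was rated visually against untreated controls on a 0–100 scale (0 = no effect, 100 = complete control).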
# wild oat = experiment: Test B postemergence herbicide test; assay type: in vivo, Avena fatua; conditions: postemergence, visual rating, scale 0 (no effect) to 100 (complete control)
# Method in brief: as §3
# rice [3] = experiment: Test B flooded paddy test; assay type: in vivo, Oryza sativa; conditions: 1000 g ai/ha, visual rating, scale 0 to 100 (0 no effect, 100 complete control), 13 to 15 days
# Method in brief: as §2
# [4] = system: small flower umbrella sedge; experiment: Test B flooded paddy test; assay type: in vivo, Cyperus difformis; conditions: 1000 g ai/ha, visual rating, scale 0 to 100 (0 no effect, 100 complete control), 13 to 15 days
# Method in brief: as §2
# ducksalad = experiment: Test B flooded paddy test; assay type: in vivo, Heteranthera limosa; conditions: 1000 g ai/ha, visual rating, scale 0 to 100 (0 no effect, 100 complete control), 13 to 15 days
# Method in brief: as §2
# barnyardgrass [5] = experiment: Test B flooded paddy test; assay type: in vivo, Echinochloa crus-galli; conditions: 1000 g ai/ha, visual rating, scale 0 to 100 (0 no effect, 100 complete control), 13 to 15 days
# Method in brief: as §2
# [6] = 125 g ai/ha, 0 = no effect, 100 = complete control, preemergence
# [7] = 500 g ai/ha, visual rating 0-100, 0 no effect, 100 complete control, preemergence
compound,measurement,setting,value
CC(=NO)c1cccc(NC(=O)c2nn(C(C)(C)C)cc2C(F)(F)F)c1 [Compound 171],Barnyardgrass plant response rating (0 to 100 scale),barnyardgrass [1]; [6],0
same,"Plant response rating, Barnyardgrass",barnyardgrass [1]; [7],0
same,Barnyardgrass plant response rating,barnyardgrass [1]; 125 g ai/ha,0
same,Barnyardgrass plant response rating,barnyardgrass [1]; 500 g ai/ha,10
same,"Plant response rating, Surinam Grass",Surinam grass; [7],0
same,Surinam Grass plant response rating,Surinam grass; 125 g ai/ha,10
same,Surinam Grass plant response rating,Surinam grass; 500 g ai/ha,10
same,Cocklebur plant response rating (0 to 100 scale),cocklebur; [6],0
same,"Plant response rating, Cocklebur",cocklebur; [7],0
same,Cocklebur plant response rating,cocklebur; 125 g ai/ha,0
same,Cocklebur plant response rating,cocklebur; 500 g ai/ha,0
same,Corn plant response rating (0 to 100 scale),corn; [6],0
same,"Plant response rating, Corn",corn; [7],0
same,Corn plant response rating,corn; 125 g ai/ha,0
same,Corn plant response rating,corn; 500 g ai/ha,10
same,"Crabgrass, Large plant response rating (0 to 100 scale)",large crabgrass; [6],0
same,"Plant response rating, Crabgrass, Large",large crabgrass; [7],30
same,"Crabgrass, Large plant response rating",large crabgrass; 125 g ai/ha,0
same,"Crabgrass, Large plant response rating",large crabgrass; 500 g ai/ha,10
same,"Plant response rating, Foxtail, Giant",giant foxtail; [7],0
same,"Foxtail, Giant plant response rating",giant foxtail; 125 g ai/ha,10
same,"Foxtail, Giant plant response rating",giant foxtail; 500 g ai/ha,20
same,Lambsquarters plant response rating (0 to 100 scale),lambsquarters; [6],0
same,"Plant response rating, Lambsquarters",lambsquarters; [7],0
same,Lambsquarters plant response rating,lambsquarters; 125 g ai/ha,10
same,Lambsquarters plant response rating,lambsquarters; 500 g ai/ha,20
same,Morningglory plant response rating (0 to 100 scale),morningglory; [6],0
same,Morningglory plant response rating,morningglory; 125 g ai/ha,0
same,Morningglory plant response rating,morningglory; 500 g ai/ha,0
same,Pigweed plant response rating (0 to 100 scale),pigweed; [6],0
same,"Plant response rating, Pigweed",pigweed; [7],0
same,Pigweed plant response rating,pigweed; 125 g ai/ha,10
same,Pigweed plant response rating,pigweed; 500 g ai/ha,20
same,Rice plant response rating (0 to 100 scale),"rice [2]; 125 g ai/ha, 0 = no effect, 100 = complete control",0
same,"Plant response rating, Rice","rice [2]; 500 g ai/ha, visual rating 0-100, 0 no effect, 100 complete control",0
same,Velvetleaf plant response rating (0 to 100 scale),velvetleaf; [6],0
same,"Plant response rating, Velvetleaf",velvetleaf; [7],20
same,Velvetleaf plant response rating,velvetleaf; 125 g ai/ha,0
same,Velvetleaf plant response rating,velvetleaf; 500 g ai/ha,0
same,Blackgrass plant response rating,blackgrass; 125 g ai/ha,0
same,Blackgrass plant response rating,blackgrass; 500 g ai/ha,0
same,Wheat plant response rating,wheat; 125 g ai/ha,0
same,Wheat plant response rating,wheat; 500 g ai/ha,0
same,"Oat, Wild plant response rating",wild oat; 125 g ai/ha,0
same,"Oat, Wild plant response rating",wild oat; 500 g ai/ha,0
same,Rice plant response rating,rice [3],0
same,"Sedge, Umbrella plant response rating",[4],0
same,Ducksalad plant response rating,ducksalad,0
same,Barnyardgrass plant response rating,barnyardgrass [5],0

# Source: patent publication US20060069132A1, “Azolecarboxamide herbicides” (priority 2004, published 2006)
